Reference: patent publication US20240367098A1, “CARBON DIOXIDE ABSORBENT, METHOD FOR RECOVERING CARBON DIOXIDE, AND APPARATUS FOR SEPARATING AND RECOVERING CARBON DIOXIDE” (MITSUBISHI GAS CHEMICAL COMPANY, INC., priority 2021, published 2024)

Legend:
Type in all cases: physicochemical
[1] = Acid dissociation constant (pKa) of amine compound (acid-base titration); conditions: 25±2° C., in purified water
Procedure: The acid dissociation constant of the amine compound was determined by the following method. • (1) Dissolving 0.2 g of the amine compound in 30 mL of the purified water. • (2) Calculating the acid dissociation constant (pKa) by titrating the solution obtained in the above (1) with the 0.1 N perchloric acid-acetic acid solution using the automatic potentiometric titrator (AT-610 produced by Kyoto Electronics Manufacturing Co., Ltd.).
Still, let the temperature at the time of measurement be 25±2° C.

[2] = Amine value of amine compound (JIS K7237-1995 titration); conditions: 0.1 N perchloric acid-acetic acid titration
Procedure: The amine value was measured by the following measurement method in accordance with JIS K7237-1995. • (1) Dissolving 0.1 g of the amine compound in 20 mL of the acetic acid. • (2) Calculating the amine value by titrating the solution obtained in the above (1) with the 0.1 N perchloric acid-acetic acid solution using the automatic potentiometric titrator (AT-610 produced by Kyoto Electronics Manufacturing Co., Ltd.).

[3] = Maximum carbon dioxide (CO2) release temperature of amine compound (DSC after CO2 absorption from air); conditions: amine compound stood 24 hours in air at 23° C., 50% RH; DSC 23 to 250° C., 10° C./minute, nitrogen
Procedure: A carbon dioxide concentration meter and a petri dish were placed inside an openable desiccator (Internal Dimension: 370 mm×260 mm×272 mm). […] An initial concentration of carbon dioxide was adjusted to about 400 ppm. Then, the amine compound was removed from the desiccator to obtain the amine compound with carbon dioxide absorbed. The DSC measurement was performed on the amine compound with carbon dioxide absorbed as follows, to measure the maximum carbon dioxide release temperature of the amine compound. First, the differential scanning calorimetry was performed on the amine compound using the differential thermogravimetric analyzer (Product Name: DTG-60 produced by Shimadzu Corporation) under the conditions of 23 to 250° C. of a measurement temperature range, 10° C./minute of the heating rate, and the nitrogen atmosphere. From the DSC curve obtained thereby, the temperature at which the endothermic amount associated with the desorption of carbon dioxide reached the maximum was calculated, and the temperature thereof was used as the maximum carbon dioxide release temperature of the amine compound.

[4] = Maximum endothermic temperature of amine compound (DSC); conditions: DSC 23 to 350° C., 10° C./minute, nitrogen; volatilization of the amine compound
Procedure: DSC measurements were performed on the amine compounds to measure the maximum endothermic temperature of the amine compounds as follows. First, a differential scanning calorimetry was performed on the amine compounds using a differential thermogravimetric analyzer (Product Name: DTG-60 produced by Shimadzu Corporation) under conditions of 23 to 350° C. of a measurement temperature range, 10° C./minute of a heating rate, and a nitrogen atmosphere. From the DSC curve obtained thereby, the temperature at which the endothermic amount associated with the volatilization of the amine compound reached the maximum was calculated, and the temperature thereof was used as the maximum endothermic temperature of the amine compound.

pKa [1]	Amine Value [2]	Maximum CO2 Release Temperature [3]	Maximum Endothermic Temperature [4]	Structure (SMILES)
9.5	–	–	–	NCCCNCC1CCCC(CNCCCN)C1 (stereo not shown) [1,3-BAC-BisAP]
9.8	890 mgKOH/g	102.3 °C	298.2 °C	NCCCN(CCCN)CC1CCCC(CN(CCCN)CCCN)C1 (stereo not shown) [1,3-BAC-tetraAP]
10.1	1154 mgKOH/g	81.9 °C	118.4 °C	NCCN1CCNCC1 [AEP, 2-aminoethylpiperazine]
10.3	–	–	–	NCCNCCNCCN [TETA, triethylenetetramine]
